Data published in the NIST ThermoML archive (doi:10.1016/j.jct.2006.08.002).

Test: xn = mol fraction of the nth substance listed
Conditions: Fluid (supercritical or subcritical phases), Constant-volume piezometry

CCO [ethanol] + O
Conditions	mass density [kg/m3]
598.15 K, 15540 kPa, x1 = 0.2	308.36
598.15 K, 15600 kPa, x1 = 0.8	243.3
598.15 K, 15640 kPa, x1 = 0.2	325.01
598.15 K, 16230 kPa, x1 = 0.8	260.09
598.15 K, 16810 kPa, x1 = 0.2	420.24
598.15 K, 17080 kPa, x1 = 0.8	283.38
598.15 K, 18140 kPa, x1 = 0.8	306.39
598.15 K, 18350 kPa, x1 = 0.8	311.71
598.15 K, 19160 kPa, x1 = 0.5	326.69
598.15 K, 21410 kPa, x1 = 0.8	366.53
598.15 K, 21610 kPa, x1 = 0.5	384.81
598.15 K, 21850 kPa, x1 = 0.5	418.8
598.15 K, 22460 kPa, x1 = 0.8	381.79
598.15 K, 24130 kPa, x1 = 0.5	420.47
598.15 K, 24210 kPa, x1 = 0.5	423.68
598.15 K, 24610 kPa, x1 = 0.8	404.76
598.15 K, 27590 kPa, x1 = 0.2	547.13
598.15 K, 28350 kPa, x1 = 0.8	438.59
598.15 K, 28670 kPa, x1 = 0.5	462.7
598.15 K, 38940 kPa, x1 = 0.5	520.65
598.15 K, 48240 kPa, x1 = 0.2	617.36
598.15 K, 48500 kPa, x1 = 0.5	554.28
603.15 K, 10470 kPa, x1 = 0.2	67.54
603.15 K, 12120 kPa, x1 = 0.5	117.18
603.15 K, 14860 kPa, x1 = 0.5	170.89
603.15 K, 16860 kPa, x1 = 0.2	350.86
603.15 K, 16940 kPa, x1 = 0.5	234.07
603.15 K, 18730 kPa, x1 = 0.5	293.15
613.15 K, 23290 kPa, x1 = 0.2	452.8
623.15 K, 6210 kPa, x1 = 0.8	53.01
623.15 K, 7610 kPa, x1 = 0.5	55.79
623.15 K, 9230 kPa, x1 = 0.5	69.05
623.15 K, 10590 kPa, x1 = 0.5	84.15
623.15 K, 11070 kPa, x1 = 0.8	114.64
623.15 K, 13180 kPa, x1 = 0.5	117.07
623.15 K, 13400 kPa, x1 = 0.2	89.94
623.15 K, 15510 kPa, x1 = 0.8	187.93
623.15 K, 16770 kPa, x1 = 0.2	137.9
623.15 K, 18300 kPa, x1 = 0.8	242.99
623.15 K, 19450 kPa, x1 = 0.2	221.42
623.15 K, 20470 kPa, x1 = 0.8	283.01
623.15 K, 20590 kPa, x1 = 0.2	286.35
623.15 K, 21000 kPa, x1 = 0.2	307.94
623.15 K, 21380 kPa, x1 = 0.2	324.56
623.15 K, 21860 kPa, x1 = 0.8	305.99
623.15 K, 21920 kPa, x1 = 0.2	350.47
623.15 K, 22240 kPa, x1 = 0.8	311.3
623.15 K, 24920 kPa, x1 = 0.2	420.24
623.15 K, 26360 kPa, x1 = 0.8	366.04
623.15 K, 27820 kPa, x1 = 0.8	381.27
623.15 K, 27940 kPa, x1 = 0.5	384.27
623.15 K, 30710 kPa, x1 = 0.8	404.2
623.15 K, 31220 kPa, x1 = 0.5	418.2
623.15 K, 31480 kPa, x1 = 0.5	419.87
623.15 K, 31720 kPa, x1 = 0.5	423.08
623.15 K, 36430 kPa, x1 = 0.8	444.29
623.15 K, 37340 kPa, x1 = 0.5	462.02
623.15 K, 41330 kPa, x1 = 0.2	546.22
623.15 K, 50360 kPa, x1 = 0.5	519.83
628.15 K, 19790 kPa, x1 = 0.8	259.69
628.15 K, 36970 kPa, x1 = 0.8	437.84
633.15 K, 11600 kPa, x1 = 0.2	67.45
633.15 K, 13740 kPa, x1 = 0.5	117.01
633.15 K, 17410 kPa, x1 = 0.5	170.64
633.15 K, 23850 kPa, x1 = 0.5	292.69
633.15 K, 26000 kPa, x1 = 0.5	326.07
638.15 K, 21420 kPa, x1 = 0.5	233.65
643.15 K, 35160 kPa, x1 = 0.2	451.97
648.15 K, 6600 kPa, x1 = 0.8	52.95
648.15 K, 8080 kPa, x1 = 0.5	55.72
648.15 K, 9890 kPa, x1 = 0.5	68.96
648.15 K, 11430 kPa, x1 = 0.5	84.05
648.15 K, 12050 kPa, x1 = 0.8	114.5
648.15 K, 14470 kPa, x1 = 0.5	116.92
648.15 K, 14680 kPa, x1 = 0.2	89.83
648.15 K, 17440 kPa, x1 = 0.8	187.69
648.15 K, 19110 kPa, x1 = 0.2	137.73
648.15 K, 23400 kPa, x1 = 0.2	221.13
648.15 K, 25670 kPa, x1 = 0.8	305.59
648.15 K, 25860 kPa, x1 = 0.2	285.96
648.15 K, 26120 kPa, x1 = 0.8	310.89
648.15 K, 26740 kPa, x1 = 0.2	307.52
648.15 K, 28730 kPa, x1 = 0.2	349.97
648.15 K, 31420 kPa, x1 = 0.8	365.54
648.15 K, 33230 kPa, x1 = 0.8	380.75
648.15 K, 33660 kPa, x1 = 0.2	420.24
648.15 K, 34330 kPa, x1 = 0.5	383.73
648.15 K, 36760 kPa, x1 = 0.8	403.64
648.15 K, 39020 kPa, x1 = 0.5	419.27
653.15 K, 19550 kPa, x1 = 0.2	137.7
653.15 K, 21530 kPa, x1 = 0.8	242.62
653.15 K, 22750 kPa, x1 = 0.8	259.36
653.15 K, 24460 kPa, x1 = 0.8	282.58
653.15 K, 26990 kPa, x1 = 0.8	310.81
653.15 K, 28660 kPa, x1 = 0.2	324.03
653.15 K, 34300 kPa, x1 = 0.8	380.65
653.15 K, 35620 kPa, x1 = 0.5	383.63
653.15 K, 40110 kPa, x1 = 0.5	417.48
653.15 K, 40890 kPa, x1 = 0.5	422.34
653.15 K, 44100 kPa, x1 = 0.8	437.21
653.15 K, 48080 kPa, x1 = 0.5	461.19
673.15 K, 6990 kPa, x1 = 0.8	52.89
673.15 K, 8570 kPa, x1 = 0.5	55.65
673.15 K, 10540 kPa, x1 = 0.5	68.88
673.15 K, 12250 kPa, x1 = 0.5	83.95
673.15 K, 12980 kPa, x1 = 0.2	67.32
673.15 K, 13010 kPa, x1 = 0.8	114.36
673.15 K, 15740 kPa, x1 = 0.5	116.78
673.15 K, 15940 kPa, x1 = 0.2	89.72
673.15 K, 19310 kPa, x1 = 0.8	187.46
673.15 K, 20680 kPa, x1 = 0.5	170.3
673.15 K, 21310 kPa, x1 = 0.2	137.56
673.15 K, 23620 kPa, x1 = 0.8	242.38
673.15 K, 25130 kPa, x1 = 0.8	259.1
673.15 K, 25740 kPa, x1 = 0.5	233.23
673.15 K, 27230 kPa, x1 = 0.8	282.28
673.15 K, 27430 kPa, x1 = 0.2	220.84
673.15 K, 29500 kPa, x1 = 0.8	305.19
673.15 K, 30040 kPa, x1 = 0.8	310.49
673.15 K, 30620 kPa, x1 = 0.5	292.07
673.15 K, 31230 kPa, x1 = 0.2	285.57
673.15 K, 32510 kPa, x1 = 0.2	307.09
673.15 K, 33730 kPa, x1 = 0.2	323.66
673.15 K, 34050 kPa, x1 = 0.5	325.37
673.15 K, 35510 kPa, x1 = 0.2	349.48
673.15 K, 36420 kPa, x1 = 0.8	365.05
673.15 K, 38700 kPa, x1 = 0.8	380.23
673.15 K, 40850 kPa, x1 = 0.5	383.2
673.15 K, 42660 kPa, x1 = 0.2	420.24
673.15 K, 42950 kPa, x1 = 0.8	403.08
673.15 K, 46620 kPa, x1 = 0.5	418.66
673.15 K, 47140 kPa, x1 = 0.2	451.15
